The record followed here is publication PMC13622972 (Antiviral research, 2022).

Positions of bridges follow the written chain, without caps; N, C: chain ends. Residues, ends and D or L forms follow the SMILES beside them.

For assay [1], the system named is pseudotyped Vesicular stomatitis virus (VSV). The class given is cell-based.
For assay [2], the system named is pseudotyped Ebola virus (EBOV).
Assay [3] deals with pseudotyped Marburg virus (MARV).
The subject of assay [4] is wild type Ebola virus Zaire. Conditions: 36 h.

Broadly, the IC50 is the concentration that gives 50% inhibition. A low value points to inhibition by little substance. For `CC(C)[C@@H]1NC(=O)[C@H](Cc2ccccc2)NC(=O)[C@H](Cc2ccccc2)NC(=O)[C@H](CC(=O)O)NC(=O)[C@H](CC(=O)O)NC(=O)CNC(=O)[C@H](CCCCN)NC(=O)[C@@H](NC(=O)[C@@H](N)Cc2c[nH]cn2)CSSC[C@@H](C(=O)N[C@@H](Cc2ccc(O)cc2)C(=O)O)NC(=O)[C@H](C)NC(=O)[C@H](Cc2ccc(O)cc2)NC1=O` [erp1c, HCKGDDFFVYACY] (H-HCKGDDFFVYACY-OH; disulfide 2-12 (inferred); N-terminus and C-terminus assumed), the “Activity against the pseudotyped VSV virus” value (from here on “Activity”) in assay [1] is “no activities”. Further, the IC50 in assay [2] is 12.3 µM; in assay [3] it was 28.5 µM; in assay [4], 10.5 µM.

Consider `C[C@@H](O)[C@@H]1NC(=O)CNC(=O)[C@@H](N)CSSC[C@@H](C(=O)O)NC(=O)[C@H](Cc2ccc(O)cc2)NC(=O)[C@H](Cc2ccc(O)cc2)NC(=O)[C@H](Cc2ccc(O)cc2)NC(=O)[C@H](Cc2ccccc2)NC1=O` [m78abc, CGTFYYYC] (H-CGTFYYYC-OH; disulfide 1-8 (inferred); N-terminus and C-terminus assumed), for which the “Activity” value in assay [1] is reported as “no activities”. Besides, the figures for the half-maximal inhibitory concentration (IC50) in assay [2] and in assay [3] were 16.1 µM and 12.5 µM, respectively.

With `CC(C)[C@@H]1NC(=O)[C@H](Cc2ccccc2)NC(=O)CNC(=O)[C@H](CO)NC(=O)[C@@H](N)CSSC[C@@H](C(=O)O)NC(=O)[C@H](Cc2c[nH]c3ccccc23)NC(=O)[C@H](CCC(=O)O)NC1=O` [m191abc, CSGFVEWC] (H-CSGFVEWC-OH; disulfide 1-8 (inferred); N-terminus and C-terminus assumed), the “Activity” value in assay [1] is “no activities”. Further, the 50% inhibitory concentration (IC50) stood at 37.2 µM in assay [2] and 8.5 µM in assay [3].
